Results published in US20100160349A1, “TRIAZOLOPYRIMIDINE DERIVATIVES AS GLYCOGEN SYNTHASE KINASE 3 INHIBITORS” (priority 2005, published 2010).
Counter-ions that a name gives are not always drawn.

Key:
GSK3β = GSK3β (Homo sapiens, UniProt P49841); assay: GSK3beta assay (SPA, biotinylated phosphorylated CREB peptide, ATP-P33); type: biochemical; conditions: −log IC50 (M); reported as ranges; 5.7 ng/μl GSK3β, 1 μM ATP, room temperature, one hour; read-out: pIC50 (GSK3beta) (converted)
Experimental: (§1) GSK3beta assays were performed at room temperature in a 100 μl reaction volume of 25 mM Tris (pH 7.4) containing 10 mM MgCl2.6H2O, 1 mM DTT, 0.1 mg/ml BSA, 5% glycerol and containing 5.7 ng/μl GSK3β, 5 μM biotinylated phosphorylated CREB peptide, 1 μM ATP, 0.85 μCi/ml ATP-P^33 and a suitable amount of a test compound of formula (I). After one hour, the reaction was terminated by adding 70 μl of Stop mix (0.1 mM ATP, 5 mg/ml streptavidin coated PVT SPA bead pH 11.0). The beads to which the phosphorylated CREB peptide is attached were allowed to settle overnight and the radioactivity of the beads was counted in a microtiterplate scintillation counter and compared with the results obtained in a control experiment (without the presence of a test compound) in order to determine the percentage of GSK3β inhibition. The IC50 value, i.e. the concentration (M) of the test compound at which 50% of GSK3β is inhibited, was calculated from the dose response curve obtained by performing the above-described GSK3β assay in the presence of different amounts of the test compound.

GSK3alpha = GSK3alpha (Homo sapiens, UniProt P49840); assay: GSK3alpha assay (same way as the GSK3beta assay); type: biochemical; conditions: −log IC50 (M); reported as ranges; 0.25 ng/μl GSK3alpha, 1 μM ATP, room temperature, one hour; read-out: pIC50 (GSK3alpha) (converted)
Sequence of GSK3alpha (P49840 whole entry, species assumed): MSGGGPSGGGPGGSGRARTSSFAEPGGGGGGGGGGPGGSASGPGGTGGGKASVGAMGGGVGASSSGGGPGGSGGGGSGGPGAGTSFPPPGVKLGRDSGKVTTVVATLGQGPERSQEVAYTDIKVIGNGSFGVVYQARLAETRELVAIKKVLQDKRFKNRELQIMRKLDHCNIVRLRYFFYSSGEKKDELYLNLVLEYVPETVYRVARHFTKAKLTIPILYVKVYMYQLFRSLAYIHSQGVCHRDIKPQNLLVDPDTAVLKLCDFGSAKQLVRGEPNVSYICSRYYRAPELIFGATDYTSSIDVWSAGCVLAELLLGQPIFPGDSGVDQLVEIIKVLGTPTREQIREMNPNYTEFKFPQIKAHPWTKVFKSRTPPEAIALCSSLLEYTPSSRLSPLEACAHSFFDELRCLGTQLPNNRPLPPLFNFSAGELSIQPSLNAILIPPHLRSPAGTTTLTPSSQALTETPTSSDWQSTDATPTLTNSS
Experimental: as §1
The GSK3alpha assay was performed in the same way as described above for the GSK3beta assay except for the concentration of GSK3alpha which is 0.25 ng/μl.

Sequence of GSK3β (P49841 whole entry, species assumed): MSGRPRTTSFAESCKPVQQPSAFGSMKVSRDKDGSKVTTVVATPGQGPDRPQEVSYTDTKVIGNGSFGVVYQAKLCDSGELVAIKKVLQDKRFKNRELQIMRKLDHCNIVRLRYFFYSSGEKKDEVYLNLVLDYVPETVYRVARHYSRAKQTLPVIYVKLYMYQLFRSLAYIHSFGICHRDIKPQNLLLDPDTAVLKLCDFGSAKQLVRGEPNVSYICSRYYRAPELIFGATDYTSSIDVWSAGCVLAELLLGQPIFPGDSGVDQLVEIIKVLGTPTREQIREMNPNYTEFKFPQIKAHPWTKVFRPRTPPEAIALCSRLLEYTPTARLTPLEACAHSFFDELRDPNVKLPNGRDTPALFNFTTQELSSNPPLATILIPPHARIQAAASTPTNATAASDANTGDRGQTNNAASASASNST

melting point [°C]	IC50 (GSK3β) [M]	IC50 (GSK3alpha) [M]	SMILES
> 260			NCc1cccc(-n2nnc3cnc(Nc4ccccc4)nc32)c1 (as salt: HCl) [Co. No. 9]
218 to 222	< 1e-08	< 1e-08	N#CCc1cccc(-n2nnc3cnc(Nc4ccccc4)nc32)c1 [Co. No. 1]
241	> 1e-07	1e-08 to 1e-07	O=C(O)Cc1cccc(-n2nnc3cnc(Nc4ccccc4)nc32)c1 [Co. No. 8]
	1e-08 to 1e-07	< 1e-08	NCc1cccc(-n2nnc3cnc(Nc4ccccc4)nc32)c1 [Co. No. 9]
	< 1e-08	< 1e-08	OCCc1cccc(-n2nnc3cnc(Nc4ccccc4)nc32)c1 [Co. No. 10]
	< 1e-08	< 1e-08	COCc1cccc(-n2nnc3cnc(Nc4ccccc4)nc32)c1 [Co. No. 11]
	≤ 1e-08	< 1e-08	CC(=O)NCc1cccc(-n2nnc3cnc(Nc4ccccc4)nc32)c1 [Co. No. 12]
	< 1e-08	< 1e-08	CCOC(=O)NCc1cccc(-n2nnc3cnc(Nc4ccccc4)nc32)c1 [Co. No. 15]
	< 1e-08	< 1e-08	NC(=O)Cc1cccc(-n2nnc3cnc(Nc4ccccc4)nc32)c1 [Co. No. 17]

More lines, now with the values behind:

SMILES	melting point [°C]	IC50 (GSK3β) [M]	IC50 (GSK3alpha) [M]
COCCOCc1cccc(-n2nnc3cnc(Nc4ccccc4)nc32)c1 [Co. No. 2]	143	< 1e-08	< 1e-08
COCCOc1cccc(-n2nnc3cnc(Nc4ccccc4)nc32)c1 [Co. No. 3]	164	1e-08 to 1e-07	< 1e-08
c1ccc(Nc2ncc3nnn(-c4ccccc4)c3n2)cc1 [Co. No. 4]	194 to 198	1e-08 to 1e-07	1e-08 to 1e-07
CC(C)(C)OC(=O)NCc1cccc(-n2nnc3cnc(Nc4ccccc4)nc32)c1 [Co. No. 5]	196 to 198	< 1e-08	< 1e-08
O=C(NCc1cccc(-n2nnc3cnc(Nc4ccccc4)nc32)c1)C12CC3CC(CC(C3)C1)C2 [Co. No. 6]		> 1e-07	> 1e-07
CC(C)CC(=O)NCc1cccc(-n2nnc3cnc(Nc4ccccc4)nc32)c1 [Co. No. 7]		< 1e-08	< 1e-08
Fc1cccc(-n2nnc3cnc(Nc4ccccc4)nc32)c1 [Co. No. 13]			1e-08 to 1e-07
O=C(NCc1cccc(-n2nnc3cnc(Nc4ccccc4)nc32)c1)C1CC1 [Co. No. 14]			> 1e-06
OCCc1ccc(-n2nnc3cnc(Nc4ccccc4)nc32)cc1 [Co. No. 16]		1e-08 to 1e-07	1e-08 to 1e-07
